# Data as given in patent US20140288044A1, “COMPOSITIONS AND THERAPEUTIC USES OF IKK-RELATED KINASE EPSILON AND TANKBINDING KINASE 1 INHIBITORS” (Alzheimer's Institute of America, Inc., priority 2011, published 2014).
# Like-named read-outs stand apart in the source and are kept apart here.
# What was measured:
# [1] = test system: IKKε-mediated phosphorylation of IRF3; assay: ELISA for in-situ phosphorylation of IRF3 (phospho-Ser396) in HEK293T cells cotransfected with IRF3 and IKKε; type: cell-based; details: Homo sapiens, HEK-293T, 20 h, HEK293T cells, 20 hours, read-out: IC50, in-situ IKKε-mediated phosphorylation of IRF3
# Summary of the method: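 HEK293T cells cotransfected with IRF3 and IKKε were treated with compound for 20 h, and lysates were assayed by ELISA for phospho-Ser396 IRF3, normalized to DMSO. Viability was checked in parallel by CellTiter-Glo. For TBK1, cells cotransfected with IRF7 and TBK1 were treated overnight and probed by Western blot for phospho-Ser477/Ser479 IRF7.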
# [2] = molecular target: T1, IKKε (Homo sapiens, UniProt Q14164); assay: In-vitro IKKε kinase assay (radiolabelled ATP, filterplate); type: biochemical
# T1 construct: His-tag (in-house Sf9 preparation) or GST-tag (purchased Invitrogen preparation); these are alternatives, not both on one protein; host or cells: Sf9 cells
# T1 sequence (Q14164 1-716): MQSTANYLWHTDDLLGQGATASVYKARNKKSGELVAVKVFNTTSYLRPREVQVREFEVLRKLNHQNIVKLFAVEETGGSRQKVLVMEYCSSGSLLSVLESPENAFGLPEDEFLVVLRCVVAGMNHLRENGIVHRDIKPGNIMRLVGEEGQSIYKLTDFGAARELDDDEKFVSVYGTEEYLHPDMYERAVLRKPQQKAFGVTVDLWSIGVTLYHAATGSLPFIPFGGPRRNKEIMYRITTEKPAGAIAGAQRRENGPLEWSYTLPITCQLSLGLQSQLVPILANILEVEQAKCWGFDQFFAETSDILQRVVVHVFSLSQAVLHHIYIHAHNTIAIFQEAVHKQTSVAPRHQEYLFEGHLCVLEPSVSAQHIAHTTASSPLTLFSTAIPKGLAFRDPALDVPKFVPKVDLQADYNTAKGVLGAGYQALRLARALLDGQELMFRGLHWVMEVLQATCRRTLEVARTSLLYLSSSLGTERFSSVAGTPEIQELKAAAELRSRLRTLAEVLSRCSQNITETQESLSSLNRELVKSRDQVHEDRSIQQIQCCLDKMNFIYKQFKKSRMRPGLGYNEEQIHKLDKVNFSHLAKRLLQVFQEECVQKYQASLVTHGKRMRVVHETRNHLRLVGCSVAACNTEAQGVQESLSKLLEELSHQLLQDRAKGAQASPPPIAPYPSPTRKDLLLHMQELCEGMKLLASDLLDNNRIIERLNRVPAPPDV
# Summary of the method: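 His-tagged IKKε from Sf9 cells or GST-tagged IKKε, with myelin basic protein, casein or dephosphorylated casein as substrate and 32 μM ATP (2× Km) plus [γ^33]ATP. "Normal" assay used 0.1 μg/ml enzyme; "sensitized" used 0.015 μg/ml with dephosphorylated casein only. Stopped after 30–45 min with phosphoric acid; P-81 filter counts normalized to DMSO after background subtraction.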
# [3] = "sensitized" assay, read-out: IC50, inhibition of the kinase activity of IKKε
# [4] = range given from about 1 μM to about 250 nM
# [5] = in-vitro IKKε kinase inhibition assays, given as 0.005 μM (5 nM), read-out: IKKε kinase inhibitory activity (IC50 value)
SMILES,IC50 [1] [nM],"IC50 [2, 3] [nM]","IC50 [1, 4] [nM]","IC50 [2, 5] [nM]"
"N#Cc1cc(-c2ccnc(Nc3ccc(C(=O)N4CCCC4)nc3)n2)ccc1OC1CCN(C(=O)CO)CC1 [Example Compound 232, 2-{[1-(Hydroxyacetyl)piperidin-4-yl]oxy}-5-(2-{[6-(pyrrolidin-1-ylcarbonyl)pyridin-3-yl]amino}pyrimidin-4-yl)benzonitrile]",100 to 250,< 5,,
"COC1CN(Cc2cc(Nc3nccc(-c4ccc(OC5CCOCC5)c(C#N)c4)n3)ccn2)C1 [Example Compound 219, 5-[2-({2-[(3-Methoxyazetidin-1-yl)methyl]pyridin-4-yl}amino)pyrimidin-4-yl]-2-(tetrahydro-2H-pyran-4-yloxy)benzonitrile]",1000 to 5000,< 5,,
"N#Cc1cc(-c2ccnc(Nc3ccnc(N4CC(O)C4)c3)n2)ccc1NC(=O)C1CC1 [Example Compound 237, N-[2-Cyano-4-(2-{[2-(3-hydroxyazetidin-1-yl)pyridin-4-yl]amino}pyrimidin-4-yl)phenyl]cyclopropanecarboxamide]",1000 to 5000,< 5,,
"CC(=O)NCc1ccc(Nc2nccc(-c3ccc(OC4CCOCC4)c(C#N)c3)n2)cn1 [Example Compound 228, N-{[5-({4-[3-Cyano-4-(tetrahydro-2H-pyran-4-yloxy)phenyl]pyrimidin-2-yl}amino)pyridin-2-yl]methyl}acetamide]",,< 5,250 to 1000,
"N#Cc1cc(-c2ccnc(Nc3cncc(C(=O)NCCO)c3)n2)ccc1OC1CCOCC1 [Example Compound 175, 5-({4-[3-Cyano-4-(tetrahydro-2H-pyran-4-yloxy)phenyl]pyrimidin-2-yl}amino)-N-(2-hydroxyethyl)pyridine-3-carboxamide]",1000 to 5000,< 5,,
"N#Cc1cc(-c2ccnc(Nc3cncc(CN4CCOCC4)c3)n2)ccc1OC1CCOCC1 [Example Compound 185, 5-(2-{[5-(Morpholin-4-ylmethyl)pyridin-3-yl]amino}pyrimidin-4-yl)-2-(tetrahydro-2H-pyran-4-yloxy)benzonitrile]",,< 5,250 to 1000,
"N#Cc1cc(-c2ccnc(Nc3ccc(N4CC(O)C4)nc3)n2)ccc1OC1CCOCC1 [Example Compound 215, 5-(2-{[6-(3-Hydroxyazetidin-1-yl)pyridin-3-yl]amino}pyrimidin-4-yl)-2-(tetrahydro-2H-pyran-4-yloxy)benzonitrile]",< 100,< 5,,
"N#Cc1cc(-c2ccnc(Nc3ccnc(CN4CC(O)C4)c3)n2)ccc1OC1CCOCC1 [Example Compound 70, 5-[2-({2-[(3-Hydroxyazetidin-1-yl)methyl]pyridin-4-yl}amino)pyrimidin-4-yl]-2-(tetrahydro-2H-pyran-4-yloxy)benzonitrile]",,,250 to 1000,< 5
"N#Cc1cc(-c2ccnc(Nc3ccc(-n4cncn4)nc3)n2)ccc1OC1CCOCC1 [Example Compound 76, 2-(Tetrahydro-2H-pyran-4-yloxy)-5-(2-{[6-(1H-1,2,4-triazol-1-yl)pyridin-3-yl]amino}pyrimidin-4-yl)benzonitrile]",100 to 250,< 5,,< 5
"CCOc1ccc(Nc2nccc(-c3ccc(OC4CCOCC4)c(C#N)c3)n2)cn1 [Example Compound 8, 5-{2-[(6-Ethoxypyridin-3-yl)amino]pyrimidin-4-yl}-2-(tetrahydro-2H-pyran-4-yloxy)benzonitrile]",,< 5,250 to 1000,< 5
"CN(Cc1ccc(Nc2nccc(-c3ccc(OC4CCOCC4)c(C#N)c3)n2)cn1)C(=O)C(C)(C)O [Example Compound 205, N-{[5-({4-[3-Cyano-4-(tetrahydro-2H-pyran-4-yloxy)phenyl]pyrimidin-2-yl}amino)pyridin-2-yl]methyl}-2-hydroxy-N,2-dimethylpropanamide]",< 100,< 5,,
CC(c1ncc(Nc2nccc(-c3ccc(OC4CCOCC4)c(C#N)c3)n2)cc1F)N1CCOCC1 (stereo not shown) [Example Compound 251],100 to 250,< 5,,
"Cc1ccc(Nc2nccc(-c3ccc(OC4CCN(C(=O)[C@H](C)O)CC4)c(C#N)c3)n2)cn1 [Example Compound 128, 2-({1-[(2S)-2-Hydroxypropanoyl]piperidin-4-yl}oxy)-5-{2-[(6-methylpyridin-3-yl)amino]pyrimidin-4-yl}benzonitrile]",1000 to 5000,< 5,,< 5
"COCCNc1ncc(-c2ccc(Nc3nccc(-c4ccc(OC5CCOCC5)c(C#N)c4)n3)cn2)cn1 [Example Compound 80, 5-{2-[(6-{2-[(2-Methoxyethyl)amino]pyrimidin-5-yl}pyridin-3-yl)amino]pyrimidin-4-yl}-2-(tetrahydro-2H-pyran-4-yloxy)benzonitrile]",< 100,,,< 5
"N#Cc1cc(-c2ccnc(Nc3ccc(/C=C/CN4CCOCC4)nc3)n2)ccc1OC1CCOCC1 [Example Compound 94, 5-[2-({6-[(1E)-3-(Morpholin-4-yl)prop-1-en-1-yl]pyridin-3-yl}amino)pyrimidin-4-yl]-2-(tetrahydro-2H-pyran-4-yloxy)benzonitrile]",100 to 250,,,< 5
"COc1cc(Nc2nccc(-c3ccc(OC4CCN(C(=O)CO)CC4)c(C#N)c3)n2)ccn1 [Example Compound 131, 2-{[1-(Hydroxyacetyl)piperidin-4-yl]oxy}-5-{2-[(2-methoxypyridin-4-yl)amino]pyrimidin-4-yl}benzonitrile]",100 to 250,,,< 5
"CCN(CC)c1ccc(Nc2nccc(-c3ccc(NC(=O)C4CC4)c(C#N)c3)n2)cn1 [Example Compound 139, N-[2-Cyano-4-(2-{[6-(diethylamino)pyridin-3-yl]amino}pyrimidin-4-yl)phenyl]cyclopropanecarboxamide]",,< 5,250 to 1000,< 5
"CC(c1ncc(Nc2nccc(-c3ccc(OC4CCOCC4)c(C#N)c3)n2)cc1F)N1CC(N(C)C)C1 (stereo not shown) [Example Compound 250, 5-{2-[(6-{1-[3-(Dimethylamino)azetidin-1-yl]ethyl}-5-fluoropyridin-3-yl)amino]pyrimidin-4-yl}-2-(tetrahydro-2H-pyran-4-yloxy)benzonitrile]",100 to 250,< 5,,
"COCCNc1cc(Nc2nccc(-c3ccc(OC4CCOCC4)c(C#N)c3)n2)ccn1 [Example Compound 193, 5-[2-({2-[(2-Methoxyethyl)amino]pyridin-4-yl}amino)pyrimidin-4-yl]-2-(tetrahydro-2H-pyran-4-yloxy)benzonitrile]",< 100,< 5,,
"C[C@@H](O)C(=O)N(C)Cc1ccc(Nc2nccc(-c3ccc(OC4CCOCC4)c(C#N)c3)n2)cn1 [Example Compound 57, (2R)—N-{[5-({4-[3-Cyano-4-(tetrahydro-2H-pyran-4-yloxy)phenyl]pyrimidin-2-yl}amino)pyridin-2-yl]methyl}-2-hydroxy-N-methylpropanamide]",,,250 to 1000,< 5
"COCCOC1CN(c2cc(Nc3nccc(-c4ccc(OC5CCOCC5)c(C#N)c4)n3)ccn2)C1 [Example Compound 45, 5-[2-({2-[3-(2-Methoxyethoxy)azetidin-1-yl]pyridin-4-yl}amino)pyrimidin-4-yl]-2-(tetrahydro-2H-pyran-4-yloxy)benzonitrile]",100 to 250,< 5,,< 5
"N#Cc1cc(-c2ccnc(Nc3ccnc(NCCO)c3)n2)ccc1OC1CCN(C(=O)CO)CC1 [Example Compound 239, 2-{[1-(Hydroxyacetyl)piperidin-4-yl]oxy}-5-[2-({2-[(2-hydroxyethyl)amino]pyridin-4-yl}amino)pyrimidin-4-yl]benzonitrile]",1000 to 5000,< 5,,
"N#Cc1cc(-c2ccnc(Nc3ccc(C(=O)N4CC(O)C4)nc3)n2)ccc1OC1CCOCC1 [Example Compound 32, 5-[2-({6-[(3-Hydroxyazetidin-1-yl)carbonyl]pyridin-3-yl}amino)pyrimidin-4-yl]-2-(tetrahydro-2H-pyran-4-yloxy)benzonitrile]",,< 5,250 to 1000,< 5
